pKi: −log10 of the molar value. Marks after values point to notes of the source that are not given here.
Tests used:
[1] = system: NE transporter; test: Binding at native NE transporter; conditions: Table 8; Ki rNE Uptk divided by Ki hGAL3
Procedure: (§1) The binding properties of the compounds of the present invention were evaluated at one or more cloned receptors or native, tissue-derived transporters, using protocols described below.
(§2) The methods to determine binding affinity at native transporters are described in the following publications: 5HT transporter and NE transporter (Owens et al., 1997), and DA transporter (Javitch et al, 1984).
(§3) Binding data were analyzed using nonlinear regression and statistical techniques available in the GraphPAD Prism package (San Diego, CA). Enzymatic assay data were derived from a standard curve of reference compound data.

[2] = molecular target: NE transporter (Rattus norvegicus, UniProt Q63380); test: Binding at native NE transporter; conditions: Table 7; native transporter, head prints r (rat); read-out: rNE Uptk Ki
Sequence of NE transporter (Rattus norvegicus, UniProt Q63380) (Q63380 1-617): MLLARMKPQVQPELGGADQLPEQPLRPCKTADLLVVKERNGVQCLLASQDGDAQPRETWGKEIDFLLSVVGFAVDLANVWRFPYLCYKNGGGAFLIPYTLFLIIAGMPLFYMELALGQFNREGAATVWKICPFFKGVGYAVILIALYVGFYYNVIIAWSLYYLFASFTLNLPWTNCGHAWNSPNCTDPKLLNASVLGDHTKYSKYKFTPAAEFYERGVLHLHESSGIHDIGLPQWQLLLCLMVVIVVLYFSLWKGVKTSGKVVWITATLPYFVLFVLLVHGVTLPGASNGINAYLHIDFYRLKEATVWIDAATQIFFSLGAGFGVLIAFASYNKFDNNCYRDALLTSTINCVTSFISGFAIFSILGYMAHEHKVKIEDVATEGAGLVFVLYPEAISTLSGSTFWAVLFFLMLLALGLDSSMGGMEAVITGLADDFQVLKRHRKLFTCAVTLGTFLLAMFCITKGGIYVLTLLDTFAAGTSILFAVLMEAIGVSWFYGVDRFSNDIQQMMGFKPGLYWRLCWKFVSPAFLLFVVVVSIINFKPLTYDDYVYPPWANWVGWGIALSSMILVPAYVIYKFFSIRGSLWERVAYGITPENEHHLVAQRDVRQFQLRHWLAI
Procedure: as §1, §2, §3

[3] = system: Male Sprague-Dawley rats; test: Rat Forced Swim Test (FST); format: in vivo; conditions: for antidepressant profile in the FST (conclusion): overall conclusion of the study
Procedure: The procedure used in this study was similar to that previously described (Porsolt, et al., 1978), except the water depth (30 cm in this procedure). The greater depth in this test prevented the rats from supporting themselves by touching the bottom of the cylinder with their feet. Swim sessions were conducted by placing rats in individual plexiglass cylinders (46 cm tall x 20 cm in diameter) containing 23-25°C water 30 cm deep (Porsolt, et al. used a depth of only 15 cm; also, see Detke, et al., 1995). Two swim tests were conducted always between 1200 and 1800 hours: an initial 15-min pretest followed 24 h later by a 5-minute test. […] All other test sessions were conducted between 1300 to 1700 hours. Following all swim sessions, rats were removed from the cylinders, dried with paper towels and placed in a heated cage for 15 minutes and returned to their home cages. All test sessions were videotaped using a Panasonic color video camera and recorder for scoring later.
Male Sprague-Dawley rats (Taconic Farms, NY) were used in all experiments. Rats were housed in pairs and maintained on a 12:12-h light-dark cycle. Rats were handled for 5 minutes each day for 5 days prior to behavioral testing.
The rat's behavior was rated at 5 second intervals during the 5 minute test as one of the following: • 1. Immobility- rat remained floating in the water without struggling and was only making those movements necessary to keep its head above water; • 2. Climbing - rat was making active movements with its forepaws in and out of the water, usually directed against the walls; • 3. Swimming - rat was making active swimming motions, more than necessary to merely maintain its head above water, e.g. moving around in the cylinder; and • 4. Diving - entire body of the rat was submerged.
All of the behavior scoring was done by a single rater, who was blind to the treatment condition. The rater was also present in the room throughout the entire test period.
All injections were given using 1 cc tuberculin syringe with 26 3/8 gauge needles (Becton-Dickinson, VWR Scientific, Bridgeport, NJ). The volume of injection was 1 ml/kg.
The drugs were dissolved in 100% N,N-dimethylacetamide. All administrations were given using 1 cc tuberculin syringes, to which a 3 inch, curved, stainless steel gavage needle was attached. The volume of administration was 1 ml/kg.
The compounds were dissolved in 100% N,N-dimethylacetamide. All administrations were given using 1 cc tuberculin syringes, to which a 3 inch, curved, stainless steel gavage needle was attached. The volume of administration was 1 ml/kg.
The forced swim test data (immobility, swimming, climbing, diving) were subjected to a randomized, one-way ANOVA and post hoc tests conducted using the Student-Newman-heuls test. The data were analyzed using the GBSTAT program, version 6.5 (Dynamics Microsystems, Inc., Silver Spring, MD, 1997). All data are presented as means ± S.E.M.

[4] = system: Male albino Sprague-Dawley rats; test: Rat Social Interaction Test (SIT); format: in vivo; conditions: for Social Interaction: unfamiliar cage mates in a familiar arena
[5] = 3 mg/kg p.o., single administration, 1 hr. before test
[6] = 10 mg/kg p.o., single administration, 1 hr. before test
[7] = 30 mg/kg p.o., single administration, 1 hr. before test
[8] = 0.3 mg/kg p.o., single administration, 1 hr. before test
[9] = 1 mg/kg p.o., single administration, 1 hr. before test
[10] = 0.03 mg/kg p.o., one hour before test
[11] = 0.1 mg/kg p.o., one hour before test
[12] = 0.3 mg/kg p.o., one hour before test
[13] = 1 mg/kg p.o., one hour before test
[14] = 30 mg/kg i.p., single injection, 5 minute test
[15] = 10 mg/kg i.p., 1 hour prior to testing
[16] = 30 mg/kg i.p., 1 hour prior to testing

Compound: Cc1ccc(Nc2cc(N3CCCCC3)nc(N(C)CCc3c[nH]c4ccccc34)n2)cc1 [Example 11]
- selectivity ratio rNE Uptk [1]: >100

Compound: CN(CCc1c[nH]c2ccccc12)c1nc(Nc2ccc(F)c(F)c2)cc(N2CCCCC2)n1 [Example 15]
- selectivity ratio rNE Uptk [1]: >100

Compound: COc1cccc(Nc2cc(N3CCCCC3)nc(N(C)CCc3c[nH]c4ccccc34)n2)c1 [Example 17]
- pKi [2]: 4.74
- selectivity ratio rNE Uptk [1]: >100

Compound: Cc1ccc(Nc2cc(N3CCCCC3)nc(N(C)CCc3ccccc3)n2)cc1 [Example 22]
- Climbing [3, 5]: 2.0 ± 0.6
- Diving [3, 5]: 0.4 ± 0.4
- Immobility [3, 5]: 50 ± 0.9
- Swimming [3, 5]: 7.6 ± 0.5
- Climbing [3, 6]: 2.9 ± 0.5
- Diving [3, 6]: 0.4 ± 0.3
- Immobility [3, 6]: 41 ± 1.3^c
- Swimming [3, 6]: 15.3 ± 0.8^g
- Climbing [3, 7]: 5.2 ± 1.0^a
- Diving [3, 7]: 0.0 ± 0.0
- Immobility [3, 7]: 31 ± 2.8^b
- Swimming [3, 7]: 23.2 ± 2.0^f
- antidepressant profile in the FST (conclusion) [3]: has antidepressant properties
- pKi [2]: 4.88
- selectivity ratio rNE Uptk [1]: >100

Compound: Cc1ccc(Nc2cc(N3CCCCC3)nc(N3CCN(c4ncccc4C(F)(F)F)CC3)n2)cc1 [Example 34]
- Climbing [3, 8]: 3.3 ± 0.7
- Diving [3, 8]: 0.2 ± 0.1
- Immobility [3, 8]: 45 ± 1.5^a
- Swimming [3, 8]: 11.6 ± 0.9^d
- Climbing [3, 9]: 5.0 ± 0.8^c
- Diving [3, 9]: 0.3 ± 0.2
- Immobility [3, 9]: 35 ± 1.9^b
- Swimming [3, 9]: 19.6 ± 1.3^d,e
- Climbing [3, 5]: 4.3 ± 0.8
- Diving [3, 5]: 0.3 ± 0.3
- Immobility [3, 5]: 35 ± 2.0^b
- Swimming [3, 5]: 20.8 ± 1.3^d,e
- Climbing [3, 6]: 2.0 ± 0.4
- Diving [3, 6]: 0.4 ± 0.3
- Immobility [3, 6]: 49 ± 1.4
- Swimming [3, 6]: 8.2 ± 1.2
- antidepressant profile in the FST (conclusion) [3]: resembles that of antidepressants
- selectivity ratio rNE Uptk [1]: >100
- Grooming bouts [4, 10]: 4.0 ± 0.4^&
- Rearing [4, 10]: 27 ± 3
- Squares Crossed [4, 10]: 312 ± 23
- Social Interaction [4, 10]: 62 ± 11 s
- Grooming bouts [4, 11]: 7.6 ± 0.5^+
- Rearing [4, 11]: 40 ± 5
- Squares Crossed [4, 11]: 295 ± 40
- Social Interaction [4, 11]: 66 ± 7 s
- Grooming bouts [4, 12]: 7.2 ± 1.1
- Rearing [4, 12]: 27 ± 2^S
- Squares Crossed [4, 12]: 363 ± 17
- Social Interaction [4, 12]: 53 ± 6 s
- Grooming bouts [4, 13]: 7.3 ± 0.8
- Rearing [4, 13]: 40 ± 1
- Squares Crossed [4, 13]: 343 ± 15^@
- Social Interaction [4, 13]: 69 ± 6 s
- increase in the duration of social interaction compared to vehicle ([4]; 0.03, 0.1, 0.3 or 1 mg/kg p.o., single administration): 2-2.6 fold

Compound: COC[C@@H]1[C@@H](c2ccccc2)OCCN1c1nc(Nc2ccc(C)cc2)cc(N2CCCCC2)n1 [Example 49]
- Climbing [3, 5]: 3.0 ± 0.7
- Diving [3, 5]: 1.0 ± 0.7
- Immobility [3, 5]: 43 ± 1.9
- Swimming [3, 5]: 13.1 ± 1.4
- Climbing [3, 6]: 2.4 ± 0.7
- Diving [3, 6]: 0.0 ± 0.0
- Immobility [3, 6]: 48 ± 1.7
- Swimming [3, 6]: 10.0 ± 1.0
- Climbing [3, 7]: 2.3 ± 0.4
- Diving [3, 7]: 0.4 ± 0.4
- Immobility [3, 7]: 41 ± 2.0^a
- Swimming [3, 7]: 16.7 ± 1.3^d

Compound: CN(C)c1cc(Nc2ccc(Cl)c(Cl)c2)nc(Nc2ccccc2)n1 [Example 60]
- pKi [2]: 4.34
- selectivity ratio rNE Uptk [1]: >100

Compound: Cc1ccc(Nc2cc(N(C)C)nc(N(C)CCc3c[nH]c4ccccc34)n2)cc1 [Example 77]
- pKi [2]: 4.55
- selectivity ratio rNE Uptk [1]: >100

Compound: O=C1C(=Nc2cccc(C(F)(F)F)c2)c2ccccc2N1c1ccccc1 [Example 92, 1-PHENYL-3- [[3-(TRIFLUOROMETHYL)PHENYL]IMINO]-1,3-DIHYDRO-2H-INDOL-2-ONE]
- Climbing ([3]; 1 mg/kg i.p., single injection, 5 minute test): 11.7 ± 1.1 counts
- Climbing ([3]; 3 mg/kg i.p., single injection, 5 minute test): 14.6 ± 1.5 counts
- Climbing [3, 14]: 8.6 ± 1.7 counts
- Immobility [3, 14]: 25 ± 3.5 counts
- Grooming bouts [4, 15]: 6.1 ± 0.5
- Rearings [4, 15]: 47 ± 8^a
- Grooming bouts [4, 16]: 6.2 ± 0.7
- Rearings [4, 16]: 45 ± 5^b
- Squares Crossed [4, 16]: 368 ± 36
- Squares Crossed ([4]; 100 mg/kg i.p., 1 hour prior to testing): 195 ± 19^c

Compound: O=C1C(=Nc2cccc(Cl)c2)c2ccccc2N1c1ccccc1 [Example 94, 3-[(3-CHLOROPHENYL)IMINO]-1-PHENYL-1,3-DIHYDRO-2H-INDOL-2-ONE]
- pKi [2]: 5.31
- selectivity ratio rNE Uptk [1]: >30

Compound: O=C1C(=Nc2ccc(C(F)(F)F)cc2)c2ccccc2N1c1ccccc1 [Example 95, 1-PHENYL-3-[[4-(TRIFLUOROMETHYL)PHENYL]IMINO]-1,3-DIHYDRO-2H-INDOL-2-ONE]
- Climbing [3, 5]: 2.6 ± 0.8
- Diving [3, 5]: 0.0 ± 0.0
- Immobility [3, 5]: 40 ± 3.3
- Swimming [3, 5]: 17.1 ± 2.5
- Climbing [3, 6]: 1.3 ± 0.5
- Diving [3, 6]: 0.1 ± 0.1
- Immobility [3, 6]: 52 ± 1.2^a
- Swimming [3, 6]: 6.9 ± 0.9^b
- Climbing [3, 7]: 1.0 ± 0.3
- Diving [3, 7]: 0.0 ± 0.0
- Immobility [3, 7]: 54 ± 0.9^a
- Swimming [3, 7]: 4.8 ± 0.7^b
- antidepressant profile in the FST (conclusion) [3]: does not produce antidepressant-like actions
- pKi [2]: 5.21
- selectivity ratio rNE Uptk [1]: >100

Compound: O=C1C(=Nc2ccc(Cl)cc2)c2ccccc2N1c1ccccc1 [Example 97, 3-[(4-CHLOROPHENYL)IMINO]-1-PHENYL-1,3-DIHYDRO-2H-INDOL-2-ONE]
- pKi [2]: 5.36
- selectivity ratio rNE Uptk [1]: >30

Compound: O=C1C(=Nc2ccc(Br)cc2)c2ccccc2N1c1ccccc1 [Example 98, 3-[(4-BROMOPHENYL)IMINO]-1-PHENYL-1,3-DIHYDRO-2H-INDOL-2-ONE]
- Climbing [3, 5]: 4.3 ± 0.9^b
- Diving [3, 5]: 0.1 ± 0.1
- Immobility [3, 5]: 35 ± 2.6^a
- Swimming [3, 5]: 20.4 ± 1.9^c
- Climbing [3, 6]: 2.4 ± 0.3
- Diving [3, 6]: 0.8 ± 0.4
- Immobility [3, 6]: 39 ± 1.1^a
- Swimming [3, 6]: 17.6 ± 1.0^c
- Climbing [3, 7]: 2.0 ± 0.3
- Diving [3, 7]: 0.2 ± 0.2
- Immobility [3, 7]: 38 ± 2.3^a
- Swimming [3, 7]: 20.3 ± 2.1^c
- antidepressant profile in the FST (conclusion) [3]: resembling that of the clinically established antidepressant fluoxetine
- pKi [2]: 5.26
- selectivity ratio rNE Uptk [1]: >100

Compound: O=C1C(=Nc2cc(Cl)cc(Cl)c2)c2ccccc2N1c1ccccc1 [Example 103, 3-[(3,5-DICHLOROPHENYL)IMINO]-1-PHENYL-1,3-DIHYDRO-2H-INDOL-2-ONE]
- Climbing [3, 5]: 2.8 ± 0.6
- Diving [3, 5]: 0.5 ± 0.4
- Immobility [3, 5]: 44 ± 2.7
- Climbing [3, 6]: 3.5 ± 0.6
- Diving [3, 6]: 0.4 ± 0.2
- Immobility [3, 6]: 42 ± 2.2
- Swimming [3, 6]: 14.3 ± 1.6
- Climbing [3, 7]: 4.8 ± 0.7
- Diving [3, 7]: 1.1 ± 0.5
- Immobility [3, 7]: 32 ± 1.8^a
- Swimming [3, 7]: 22.7 ± 1.1^c
- antidepressant profile in the FST (conclusion) [3]: has antidepressant properties

From EP2140864A2 (H. Lundbeck A/S, priority 2001, dated 2002)
